Consider two molecules from paper PMC10600005 (Nature, 2023).

Each structure is given as a SMILES string.

This experiment deals with T1, nuclease P1 (P1 nuclease) (Penicillium citrinum, UniProt P24289).
T1 construct: commercial enzyme (New England Biolabs)
T1 sequence (P24289 1-270): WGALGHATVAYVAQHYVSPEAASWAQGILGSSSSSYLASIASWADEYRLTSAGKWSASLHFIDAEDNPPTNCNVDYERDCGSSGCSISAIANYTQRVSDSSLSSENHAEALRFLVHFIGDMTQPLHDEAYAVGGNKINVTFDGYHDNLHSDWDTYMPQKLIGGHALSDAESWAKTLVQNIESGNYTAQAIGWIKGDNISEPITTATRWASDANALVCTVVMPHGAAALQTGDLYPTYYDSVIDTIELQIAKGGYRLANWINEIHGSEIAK
Description: HPLC product analysis. In kind it is biochemical. Conditions: 50 mM sodium acetate pH 5.5, 37 C, 1 h, 100 uM substrate.

As for `C[S+](CC[C@H](N)C(=O)O)C[C@H]1O[C@@H](n2cnc3c(N)ncnc32)[C@H](O)[C@@H]1OP(=O)(O)OC[C@H]1O[C@@H](n2cnc3c(N)ncnc32)[C@H](O)[C@@H]1O` (some centres unmarked) [SAM-AMP], where the note is “partial degradation”, the HPLC product analysis result is given as “we observed only partial degradation of SAM-AMP”.

In the case of `Nc1ncnc2c1ncn2[C@@H]1O[C@H](COP(=O)(O)O[C@H]2[C@@H](O)[C@H](n3cnc4c(N)ncnc43)O[C@@H]2CSCC[C@H](N)C(=O)O)[C@@H](O)[C@H]1O` [SAH-AMP], the HPLC product analysis result is given as “SAH-AMP was completely degraded by nuclease P1”.
